Assay [1] concerns MX-1 mammary carcinoma xenograft. Conditions: MX-1, i.p., ref 19 (Table 4).
The test system of assay [2] is MCF-7/Adr mammary xenograft. Briefly: Human tumor xenograft in nude mice. The class given is in vivo. Particulars: i.p., ref 19 (Table 5).
The test system of assay [3] is CCRF-CEM/VBL100 (vinblastine-resistant subline). Briefly: Tumor cell growth inhibition in vitro (XTT, 72 h). The class given is cell-based, human. The procedure: (§1) The fresh medium containing each drug was replenished every 7-14 days. […] In each case ,the drug-exposed cells were resuspended in fresh media for a minimum of 4 days before the experiments for the cell-growth inhibition was carried out.
(§2) The cells were cultured at an initial density of 2-5×10^4 cells per ml. They were maintained in a 5% CO2-humidified atmosphere at 37° C. in RPMI mediun 1640 (GIBCO/BRL) containing penicillin (100 units/ml), streptomycin (100 μg/ml) (GIBCO/BRL), and 5% heat-inactivated fetal bovine serum. For solid tumor cells growing in a monolayer (such as MCF-7/Adr), cytotoxicitiy of the drug was determined in 96-well microtiter plates by using the sulforhodamine B method as described by Skehan et al (23) for measuring the cellular protein content. For cells that were grown in suspension (such as CCRF-CEM and its sublines), cytotoxicitiy was measured by using the 2,-3-bis(2-methoxy-4-nitro-5-sulfophenyl)-5carboxanilide)-2H terazodium hydroxide (XTT)-microculture tetrazonium method (24) in duplicate in 96-well microtiter plates. For both methods, the absorbance of each well was measured with a microplate reader (EL-340, Bio-Tek, Burlington, Vt.). Each run entailed six or seven concentrations of the tested drugs. Dose-effect relationship data were analyzed with the median-effect plot (25) by using a previously described computer program (26).
(In general: Tetrazolium dyes change colour on reduction, which living cells bring about.)

Assay [4] relates to CCRF-CEM human T-cell acute lymphoblastic leukemia cells. Briefly: Tumor cell growth inhibition in vitro (XTT, 72 h). The class given is cell-based. Particulars: CCRF-CEM; for IC50: 72 h incubation, read-out: IC50. As to the method:
as §1, §2

The next assay concerns CCRF-CEM/VBL. Briefly: Relative potency in vitro, very highly resistant MDR cells. The class given is cell-based, human. As to the method:
as §2

In the case of `CC[C@@]1(O)C(=O)OCc2c1cc1n(c2=O)Cc2cc3ccccc3nc2-1` [Camptothecin, camptothecin, reference compound], the “Therapeutic Effect Rank Order” value is on record as “dEpoB>Camptothecin>Taxol>VBL, EpoB” in assay [1] and “dEpoB>Camptothecin>Adriamycin>Taxol” in assay [2].

Consider `CC1=CCC(C(C)=Cc2csc(C)n2)NC(=O)CC(O)C(C)(C)C(=O)C(C)C(O)C(C)CCC1` [15-epi-aza-dEpoB, 12,13,15-desoxy-15(R)-aza-epothilone B], for which the IC50 came out at 551 nM in assay [3] (CCRF-CEM/VBL100, 72 h, read-out: IC50) and 119 nM in assay [4]. Also, the “cross-resistance (fold of resistance vs parent cell line)” value in assay [3] (CCRF-CEM/VBL100 vs CCRF-CEM) came out at 4.6 x.

`C/C1=C/C[C@@H](/C(C)=C/c2csc(C=O)n2)OC(=O)C[C@H](O)C(C)(C)C(=O)[C@H](C)[C@@H](O)[C@@H](C)CCC1` [21-oxo-dEpoB, 21-oxo-desoxyepothilone B]: the “potency relative to dEpoB (times less potent)” value is “about 3.7 ×” in assay [4] and 5.1 × in the assay with CCRF-CEM/VBL (MDR CCRF-CEM/VBL cells). In addition, the IC50 in assay [4] came out at 27 nM; in the assay with CCRF-CEM/VBL (very highly resistant MDR CCRF-CEM/VBL cells, read-out: CCRF-CEM/VBL IC50), 326 nM. Moreover, the “Fold of Resistance (B)/(A)” value with CCRF-CEM/VBL ([IC50 CCRF-CEM/VBL]/[IC50 CCRF-CEM]) was determined as 11.9 x.
